Values quoted from earlier work as cited in PMC6270305 (Molecules, 2013).
Where two headings read alike, the source gives them in different places.

[1] = human serum, peptide described in the preliminary communication

| t1/2 (human serum half-life) (human, serum) [h] | Compound | t1/2 (human serum half-life) [1] [h] |
| --- | --- | --- |
|  | [L-Msa7]-SRIF [Peptide 2] | 5.2 |
|  | [L-Msa11,D-Trp8]-SRIF [Peptide 6] | 41 |
| 25 | Cc1cc(C)c(C[C@@H]2NC(=O)[C@H](Cc3ccccc3)NC(=O)[C@H](CC(N)=O)NC(=O)[C@H](CCCCN)NC(=O)[C@@H](NC(=O)CNC(=O)[C@H](C)N)CSSC[C@@H](C(=O)O)NC(=O)[C@H](CO)NC(=O)[C@H]([C@@H](C)O)NC(=O)[C@H](Cc3ccccc3)NC(=O)[C@H]([C@@H](C)O)NC(=O)[C@H](CCCCN)NC(=O)[C@@H](Cc3c[nH]c4ccccc34)NC2=O)c(C)c1 [Peptide 5, [L-Msa7,D-Trp8]-SRIF] |  |
|  | [L-Msa6,D-Trp8]-SRIF [Peptide 4] | 26 |
